Active and inactive are the calls of the source. The calls are words filed in the database; no cut-off is given here.
What was measured:
[1] = target: GABA-A receptor; anion channel; assay: Displacement of [3H]muscimol from GABA(A) receptor in Sprague-Dawley rat cortical synaptic membranes by liquid scintillation counting
[2] = target: T1, Sodium- and chloride-dependent GABA transporter 2 (Homo sapiens, UniProt Q9NSD5); assay: Inhibition of human GAT2 expressed in Flp-In CHO cells assessed as reduction in [3H]GABA uptake incubated for 3 mins by liquid scintillation counting method; format: cell-based
T1 sequence (Q9NSD5 whole entry): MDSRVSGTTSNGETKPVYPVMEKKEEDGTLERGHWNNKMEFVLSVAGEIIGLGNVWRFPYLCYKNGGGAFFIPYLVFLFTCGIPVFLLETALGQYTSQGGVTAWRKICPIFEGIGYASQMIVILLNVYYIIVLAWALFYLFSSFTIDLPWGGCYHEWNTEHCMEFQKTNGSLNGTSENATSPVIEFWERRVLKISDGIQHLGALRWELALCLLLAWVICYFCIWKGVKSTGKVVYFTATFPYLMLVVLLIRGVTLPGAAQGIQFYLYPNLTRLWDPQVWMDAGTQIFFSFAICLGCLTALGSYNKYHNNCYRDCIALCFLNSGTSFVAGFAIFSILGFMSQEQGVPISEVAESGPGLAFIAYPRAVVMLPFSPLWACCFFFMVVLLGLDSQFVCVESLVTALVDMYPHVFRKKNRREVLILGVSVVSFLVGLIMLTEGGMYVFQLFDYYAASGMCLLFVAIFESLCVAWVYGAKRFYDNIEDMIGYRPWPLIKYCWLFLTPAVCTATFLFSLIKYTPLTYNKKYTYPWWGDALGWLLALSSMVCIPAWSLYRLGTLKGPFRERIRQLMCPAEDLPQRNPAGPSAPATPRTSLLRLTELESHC

[3] = target: T2, Sodium- and chloride-dependent betaine transporter (Homo sapiens, UniProt P48065); assay: Inhibition of human BGT1 expressed in Flp-In CHO cells assessed as reduction in [3H]GABA uptake incubated for 3 mins by liquid scintillation counting method; format: cell-based
T2 sequence (P48065 whole entry): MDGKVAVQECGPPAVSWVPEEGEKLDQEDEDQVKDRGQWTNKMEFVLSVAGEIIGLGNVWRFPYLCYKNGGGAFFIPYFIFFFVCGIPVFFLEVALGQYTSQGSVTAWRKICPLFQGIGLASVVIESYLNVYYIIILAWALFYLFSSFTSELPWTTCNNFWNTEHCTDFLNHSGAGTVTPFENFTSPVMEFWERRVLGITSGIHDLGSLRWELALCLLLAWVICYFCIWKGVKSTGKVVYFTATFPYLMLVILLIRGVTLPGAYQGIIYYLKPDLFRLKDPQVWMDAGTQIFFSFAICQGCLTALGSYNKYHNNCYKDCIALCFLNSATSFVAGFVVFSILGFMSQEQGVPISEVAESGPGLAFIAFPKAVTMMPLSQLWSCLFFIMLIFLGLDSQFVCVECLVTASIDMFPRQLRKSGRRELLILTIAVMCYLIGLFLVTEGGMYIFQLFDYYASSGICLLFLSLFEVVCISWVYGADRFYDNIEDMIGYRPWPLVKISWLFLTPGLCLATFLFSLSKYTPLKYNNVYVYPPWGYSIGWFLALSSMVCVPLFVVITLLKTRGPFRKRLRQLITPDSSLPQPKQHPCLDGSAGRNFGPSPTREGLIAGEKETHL

[4] = target: T3, Sodium- and chloride-dependent betaine transporter (Homo sapiens) (UniProt P48065); assay: Inhibition of human BGT1 expressed in Flp-In CHO cells assessed as reduction in [3H]GABA uptake at 100 uM incubated for 3 mins by liquid scintillation counting method relative to control; format: cell-based
T3 sequence (whole entry): T2 sequence (P48065 whole entry)

[5] = target: GABA-A receptor; alpha-1/beta-2/gamma-2 (Homo sapiens) (UniProt P14867+P47870+P18507); assay: Agonist activity at recombinant human GABA-A alpha1beta2gamma2S receptor transiently expressed in human tsA201 cells assessed as GABA-induced maximum response incubated for 30 mins and measured up to 90 secs by FMP dye based FLIPR membrane potential blue assay relative to GABA; format: cell-based
[6] = target: T4, Sodium- and chloride-dependent GABA transporter 3 (Homo sapiens, UniProt P48066); assay: Inhibition of human GAT3 expressed in Flp-In CHO cells assessed as reduction in [3H]GABA uptake incubated for 3 mins by liquid scintillation counting method; format: cell-based
T4 sequence (P48066 whole entry): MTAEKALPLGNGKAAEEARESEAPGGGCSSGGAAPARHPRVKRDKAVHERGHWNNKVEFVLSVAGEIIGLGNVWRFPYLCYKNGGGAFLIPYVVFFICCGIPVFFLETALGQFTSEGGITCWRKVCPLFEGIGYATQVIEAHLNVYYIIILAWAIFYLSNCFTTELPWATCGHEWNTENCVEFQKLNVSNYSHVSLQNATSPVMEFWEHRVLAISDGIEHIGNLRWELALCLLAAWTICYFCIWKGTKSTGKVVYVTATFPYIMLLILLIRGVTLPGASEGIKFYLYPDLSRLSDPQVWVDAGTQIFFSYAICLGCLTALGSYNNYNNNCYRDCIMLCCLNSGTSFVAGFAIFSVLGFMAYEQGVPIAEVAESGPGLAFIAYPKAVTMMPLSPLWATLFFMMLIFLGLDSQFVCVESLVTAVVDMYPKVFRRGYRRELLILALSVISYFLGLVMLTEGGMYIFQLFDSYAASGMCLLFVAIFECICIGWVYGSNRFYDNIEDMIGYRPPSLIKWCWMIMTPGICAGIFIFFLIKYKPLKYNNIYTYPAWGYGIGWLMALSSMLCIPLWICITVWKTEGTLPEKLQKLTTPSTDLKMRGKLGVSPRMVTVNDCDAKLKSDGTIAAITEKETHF

[7] = target: Sodium- and chloride-dependent GABA transporter 1 (Homo sapiens, UniProt P30531); assay: Inhibition of human GAT1 expressed in Flp-In CHO cells assessed as reduction in [3H]GABA uptake at 100 uM incubated for 3 mins by liquid scintillation counting method relative to control; format: cell-based
[8] = target: Gamma-aminobutyric acid receptor subunit rho-1 (Homo sapiens, UniProt P24046); assay: Agonist activity at recombinant human GABA-A rho-1 receptor transiently expressed in human tsA201 cells incubated for 30 mins and measured up to 90 secs by FMP dye based FLIPR membrane potential blue assay; format: cell-based
Gamma-aminobutyric acid receptor subunit rho-1, sequence (P24046 whole entry): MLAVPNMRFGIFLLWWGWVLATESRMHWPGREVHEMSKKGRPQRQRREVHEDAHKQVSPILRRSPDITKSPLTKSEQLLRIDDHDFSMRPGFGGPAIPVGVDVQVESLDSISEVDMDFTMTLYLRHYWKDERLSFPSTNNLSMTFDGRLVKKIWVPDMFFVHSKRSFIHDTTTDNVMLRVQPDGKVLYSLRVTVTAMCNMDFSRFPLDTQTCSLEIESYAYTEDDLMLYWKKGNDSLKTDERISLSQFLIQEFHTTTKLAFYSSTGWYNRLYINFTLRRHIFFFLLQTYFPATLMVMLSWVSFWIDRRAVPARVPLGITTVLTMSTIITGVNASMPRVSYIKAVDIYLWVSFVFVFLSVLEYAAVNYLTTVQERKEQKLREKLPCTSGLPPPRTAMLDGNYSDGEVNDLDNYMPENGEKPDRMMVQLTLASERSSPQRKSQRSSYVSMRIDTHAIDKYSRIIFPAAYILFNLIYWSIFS

Sodium- and chloride-dependent GABA transporter 1, sequence (P30531 whole entry, looked up): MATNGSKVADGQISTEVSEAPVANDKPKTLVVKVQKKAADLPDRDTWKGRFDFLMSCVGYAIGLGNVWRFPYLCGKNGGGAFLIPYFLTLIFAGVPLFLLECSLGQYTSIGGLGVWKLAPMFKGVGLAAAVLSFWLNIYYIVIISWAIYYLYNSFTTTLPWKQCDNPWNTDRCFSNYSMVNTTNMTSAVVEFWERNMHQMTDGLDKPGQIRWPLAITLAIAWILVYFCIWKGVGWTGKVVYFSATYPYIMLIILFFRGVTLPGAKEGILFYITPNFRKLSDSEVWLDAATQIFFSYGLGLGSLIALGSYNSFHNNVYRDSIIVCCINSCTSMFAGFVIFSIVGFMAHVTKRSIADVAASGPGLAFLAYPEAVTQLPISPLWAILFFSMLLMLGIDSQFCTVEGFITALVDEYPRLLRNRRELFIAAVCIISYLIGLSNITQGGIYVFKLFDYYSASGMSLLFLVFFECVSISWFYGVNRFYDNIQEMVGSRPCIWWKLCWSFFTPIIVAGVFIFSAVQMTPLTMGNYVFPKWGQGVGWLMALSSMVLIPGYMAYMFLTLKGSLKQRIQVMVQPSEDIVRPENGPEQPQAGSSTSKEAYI

Ki [1] | IC50 [2] | IC50 ([3]; read-out: IC50) | inhibition [4] | Rmax [5] | IC50 ([6]; read-out: IC50) | inhibition [7] | EC50 ([8]; read-out: EC50) | IC50 ([6]; read-out: pIC50 (converted)) | pKi [1] | EC50 [8] | pEC50 [8] | IC50 ([3]; read-out: pIC50 (converted)) | SMILES
1.6 µM | > 100 µM | > 100 µM | > 30% | 59% | > 100 µM | > 30% | – | – | – | – | – | – | C[C@@H](C(=O)O)[C@H]1CSC(N)=N1 (relative stereo)
0.11 µM | 79.1 µM | 47.4 µM | > 30% | 86% | 151 µM | > 30% | 6.5 µM | 126 µM | – | – | – | – | NC1=NC(CC(=O)O)CS1 (stereo not drawn)
5.5 µM | > 100 µM | > 100 µM | > 30% | inactive | > 100 µM | > 30% | – | – | – | – | – | – | C[C@@H]1SC(N)=N[C@@H]1CC(=O)O (relative stereo)
1.3 µM | > 100 µM | > 100 µM | – | – | > 100 µM | – | 1.2 µM | – | 5.91 | – | – | – | CC(C(=O)O)C1CSC(N)=N1 (stereo in doubt; l-10b)
0.45 µM | 132 µM | 3 µM | > 30% | 81% | 43.7 µM | > 30% | 3.8 µM | – | 6.37 | – | – | – | NC1=NC(CC(=O)O)CN1 (stereo not drawn)
12 µM | > 100 µM | > 100 µM | > 30% | inactive | > 100 µM | > 30% | – | – | 4.96 | Not Active | inactive | – | C[C@H]1SC(N)=N[C@@H]1CC(=O)O (relative stereo)
0.29 µM | > 100 µM | > 100 µM | > 30% | 22% | > 100 µM | > 30% | 1.6 µM | – | – | – | – | – | C[C@@H](C(=O)O)[C@@H]1CSC(N)=N1 (relative stereo)
5.6 µM | 16 µM | 5 µM | > 30% | inactive | 2.7 µM | > 30% | – | – | – | Not Active | inactive | 3.98 µM | O=C(O)C[C@@H]1CCNC1
0.09 µM | 2.9 µM | 7.3 µM | > 30% | 1% | 1.9 µM | > 30% | 2.8 µM | – | – | – | – | – | O=C(O)CC1CNC=N1 (stereo not drawn)
0.33 µM | > 100 µM | > 100 µM | – | – | > 100 µM | – | 7.4 µM | – | – | – | – | – | CC(C(=O)O)C1CSC(N)=N1 (stereo in doubt; l-10a)
0.21 µM | 7.3 µM | 9.9 µM | > 30% | 93% | 2.3 µM | > 30% | 8.4 µM | – | – | – | – | 7.94 µM | O=C(O)C[C@H]1CCNC1

Reference: ChEMBL document CHEMBL4396887, “Five-Membered N-Heterocyclic Scaffolds as Novel Amino Bioisosteres at γ-Aminobutyric Acid (GABA) Type A Receptors and GABA Transporters” (J Med Chem, 2019)
